Active and inactive are the calls of the source. No cut-off for these calls is given here.
Experiments:
[1] = biological target: ELAV-like protein 1 (Homo sapiens) (UniProt Q15717); assay: Binding affinity to HuR (unknown origin) assessed as positive STD factor by measuring interaction of protons of ring B and its methoxy group with protein at 400 uM in 100% D2O buffer by DEEP-STD NMR analysis
[2] = biological target: ELAV-like protein 1 (Homo sapiens) (UniProt Q15717); assay: Binding affinity to HuR (unknown origin) assessed as interaction of ring A and protons 5 and 3 with apolar residues and projection of protons 16 and 9-10 with polar residues of protein at 400 uM in H2O:D2O (90:10) buffer by DEEP-STD NMR analysis
[3] = biological target: ELAV-like protein 1 (Homo sapiens) (UniProt Q15717); assay: Binding affinity to HuR (unknown origin) assessed as interaction of ring A and protons 16 with hydrophobic residues and projection of ring B and its methoxy group with polar residues of protein at 400 uM in H2O:D2O (90:10) buffer by DEEP-STD NMR analysis
[4] = biological target: ELAV-like protein 1 (Homo sapiens) (UniProt Q15717); assay: Binding affinity to HuR (unknown origin) assessed as negative STD factor by measuring interaction of protons 3, 9-10 and 16 with protein at 400 uM in 100% D2O buffer by DEEP-STD NMR analysis

ELAV-like protein 1 (Homo sapiens), sequence (Q15717 whole entry): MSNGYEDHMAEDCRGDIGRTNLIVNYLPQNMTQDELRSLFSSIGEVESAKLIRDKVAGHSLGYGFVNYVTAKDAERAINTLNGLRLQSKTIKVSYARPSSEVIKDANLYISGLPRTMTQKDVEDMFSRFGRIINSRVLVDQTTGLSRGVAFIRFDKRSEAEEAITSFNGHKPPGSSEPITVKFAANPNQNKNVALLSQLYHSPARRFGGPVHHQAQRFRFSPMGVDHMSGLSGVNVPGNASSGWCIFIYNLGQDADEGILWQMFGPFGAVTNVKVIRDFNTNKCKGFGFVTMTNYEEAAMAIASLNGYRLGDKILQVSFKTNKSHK

SMILES: COc1cc(OC)cc([C@@H]2[C@@H](C(=O)NCCNCc3ccccc3)CCC(=O)N2CC(C)C)c1
- Activity [1]: Active
- Activity [2]: Active

SMILES: COc1cc(OC)cc([C@H]2[C@H](C(=O)NCCNCc3ccccc3)CCC(=O)N2CC(C)C)c1
- Activity [3]: Active
- Activity [4]: Active

— ChEMBL document CHEMBL4613306, “BOPC1 Enantiomers Preparation and HuR Interaction Study. From Molecular Modeling to a Curious DEEP-STD NMR Application” (ACS Med Chem Lett, 2020)
